What is called IC50 is the point on the concentration scale where inhibition reaches its midpoint.

These results are taken from patent US9873709B2 (priority 2013, dated 2018).

In this assay the test system is JAK1-dependent STAT6 phosphorylation downstream of IL-13 stimulation in TF-1 human erythroleukemia cells. Nature of the assay: cells. The note with it: TF-1, read-out: IL-13-pSTAT6 IC50.
Consider `O=C(CCC(F)(F)F)N1CC=C(c2cccn3nc(Nc4ccc(C(=O)N5CCC(N6CCOCC6)C5)cc4)nc23)CC1` (centres unmarked) [Example 2-45, 4,4,4-trifluoro-1-[4-[2-[4-(3-morpholinopyrrolidine-1-carbonyl)anilino]-[1,2,4]triazolo[1,5-a]pyridin-8-yl]-3,6-dihydro-2H-pyridin-1-yl]butan-1-one], for which the concentration for half-maximal inhibition (IC50) was found to be 9 nM.
Take `O=C(CCC(F)(F)F)N1CC=C(c2cccn3nc(Nc4ccc(C(=O)N5CCC(N6CCCC6)CC5)cc4)nc23)CC1` [Example 2-46, 4,4,4-trifluoro-1-[4-[2-[4-(4-pyrrolidin-1-ylpiperidine-1-carbonyl)anilino]-[1,2,4]triazolo[1,5-a]pyridin-8-yl]-3,6-dihydro-2H-pyridin-1-yl]butan-1-one]: the IC50 was 20.5 nM.
On to `CC1CCCCN1CCCNC(=O)c1ccc(Nc2nc3c(C4=CCN(C(=O)CCC(F)(F)F)CC4)cccn3n2)cc1` (centres unmarked) [Example 2-47, N-[3-(2-methyl-1-piperidyl)propyl]-4-[[8-[1-(4,4,4-trifluorobutanoyl)-3,6-dihydro-2H-pyridin-4-yl]-[1,2,4]triazolo[1,5-a]pyridin-2-yl]amino]benzamide], for which the IC50 was 15.7 nM.
For the molecule `CN1CCCC1CCNC(=O)c1ccc(Nc2nc3c(C4=CCN(C(=O)CCC(F)(F)F)CC4)cccn3n2)cc1` (centres unmarked) [Example 2-48, N-[2-(1-methylpyrrolidin-2-yl)ethyl]-4-[[8-[1-(4,4,4-trifluorobutanoyl)-3,6-dihydro-2H-pyridin-4-yl]-[1,2,4]triazolo[1,5-a]pyridin-2-yl]amino]benzamide], the 50% inhibitory concentration (IC50) stood at 33.5 nM.
In the case of `Cc1ccc(C2CCCN(C(=O)c3ccc(Nc4nc5c(C6=CCN(C(=O)CCC(F)(F)F)CC6)cccn5n4)cc3)C2)nc1` (centres unmarked) [Example 2-50, 4,4,4-tri fluoro-1-[4-[2-[4-[3-(5-methyl-2-pyridyl)piperidine-1-carbonyl]anilino]-[1,2,4]triazolo[1,5-a]pyridin-8-yl]-3,6-dihydro-2H-pyridin-1-yl]butan-1-one] it was 65.1 nM.
In the case of `CN(C)c1ccc(C2CCCN(C(=O)c3ccc(Nc4nc5c(C6=CCN(C(=O)CCC(F)(F)F)CC6)cccn5n4)cc3)C2)nc1` (centres unmarked) [Example 2-51, 1-[4-[2-[4-[3-[5-(dimethylamino)-2-pyridyl]piperidine-1-carbonyl]anilino]-[1,2,4]triazolo[1,5-a]pyridin-8-yl]-3,6-dihydro-2H-pyridin-1-yl]-4,4,4-trifluoro-butan-1-one] it was 70.2 nM; in that of `CN1CCC(N(C)C(=O)c2ccc(Nc3nc4c(C5=CCN(CC#N)CC5)cccn4n3)cc2)CC1` [Example 2-52, 4-[[8-[1-(cyanomethyl)-3,6-dihydro-2H-pyridin-4-yl]-[1,2,4]triazolo[1,5-a]pyridin-2-yl]amino]-N-methyl-N-(1-methyl-4-piperidyl)benzamide], 60 nM; in that of `CN1CCC(N(C)C(=O)c2ccc(Nc3nc4c(C5=CCN(C(=O)CC(C)(C)C)CC5)cccn4n3)cc2)CC1` [Example 2-54, 4-[[8-[1-(3,3-dimethylbutanoyl)-3,6-dihydro-2H-pyridin-4-yl]-[1,2,4]triazolo[1,5-a]pyridin-2-yl]amino]-N-methyl-N-(1-methyl-4-piperidyl)benzamide], 16.3 nM.
In the case of `CCOC(=O)N1CC=C(c2cccn3nc(Nc4ccc(C(=O)N5CC(NC)C5)cc4)nc23)CC1` [Example 2-55, Ethyl 4-[2-[4-[3-(methylamino)azetidine-1-carbonyl]anilino]-[1,2,4]triazolo[1,5-a]pyridin-8-yl]-3,6-dihydro-2H-pyridine-1-carboxylate] it was 10 nM.
As to `CCOC(=O)N1CC=C(c2cccn3nc(Nc4ccc(C(=O)NC5CCN(C)CC5)cc4)nc23)CC1` [Example 2-60, ethyl 4-[2-[4-[(1-methyl-4-piperidyl)carbamoyl]anilino]-[1,2,4]triazolo[1,5-a]pyridin-8-yl]-3,6-dihydro-2H-pyridine-1-carboxylate], the IC50 was determined as 20.4 nM.
`CCOC(=O)N1CC=C(c2cccn3nc(Nc4ccc(C(=O)N5CCC(c6ccncc6)C5)cc4)nc23)CC1` (centres unmarked) [Example 2-62, ethyl 4-[2-[4-[3-(4-pyridyl)pyrrolidine-1-carbonyl]anilino]-[1,2,4]triazolo[1,5-a]pyridin-8-yl]-3,6-dihydro-2H-pyridine-1-carboxylate]: the half-maximal inhibitory concentration (IC50) is 30 nM.
`CCOC(=O)N1CC=C(c2cccn3nc(Nc4ccc(C(=O)N5CCCC5c5ccc(C)cn5)cc4)nc23)CC1` (centres unmarked) [Example 2-67, ethyl 4-[2-[4-[2-(5-methyl-2-pyridyl)pyrrolidine-1-carbonyl]anilino]-[1,2,4]triazolo[1,5-a]pyridin-8-yl]-3,6-dihydro-2H-pyridine-1-carboxylate]: the IC50 was found to be 40.9 nM.
In the case of `CCOC(=O)N1CC=C(c2cccn3nc(Nc4ccc(C(=O)N5CC6(CCN(C)C6)C5)cc4)nc23)CC1` [Example 2-68, ethyl 4-[2-[4-(7-methyl-2,7-diazaspiro[3.4]octane-2-carbonyl)anilino]-[1,2,4]triazolo[1,5-a]pyridin-8-yl]-3,6-dihydro-2H-pyridine-1-carboxylate], the 50% inhibitory concentration (IC50) was 11.9 nM.
In the case of `CCOC(=O)N1CC=C(c2cccn3nc(Nc4ccc(C(=O)N5Cc6cccnc6C5)cc4)nc23)CC1` [Example 2-70, ethyl 4-[2-[4-(5,7-dihydropyrrolo[3,4-b]pyridine-6-carbonyl)anilino]-[1,2,4]triazolo[1,5-a]pyridin-8-yl]-3,6-dihydro-2H-pyridine-1-carboxylate] it was 29.8 nM.
In the case of `CCOC(=O)N1CC=C(c2cccn3nc(Nc4ccc(C(=O)N5CC(N)C5)cc4)nc23)CC1` [Example 2-74, ethyl 4-[2-[4-(3-aminoazetidine-1-carbonyl)anilino]-[1,2,4]triazolo[1,5-a]pyridin-8-yl]-3,6-dihydro-2H-pyridine-1-carboxylate], the IC50 was determined as 18.9 nM.
Regarding `CCOC(=O)N1CC=C(c2cccn3nc(Nc4ccc(C(=O)N5CC6(CNC6)C5)cc4)nc23)CC1` [Example 2-77, ethyl 4-[2-[4-(2,6-diazaspiro[3.3]heptane-2-carbonyl)anilino]-[1,2,4]triazolo[1,5-a]pyridin-8-yl]-3,6-dihydro-2H-pyridine-1-carboxylate], the concentration for half-maximal inhibition (IC50) came to 134 nM.
Turning to `CCOC(=O)N1CC=C(c2cccn3nc(Nc4ccc(C(=O)N5CCC6(CCNC6)C5)cc4)nc23)CC1` (centres unmarked) [Example 2-78, ethyl 4-[2-[4-(2,7-diazaspiro[4.4]nonane-2-carbonyl)anilino]-[1,2,4]triazolo[1,5-a]pyridin-8-yl]-3,6-dihydro-2H-pyridine-1-carboxylate], the IC50 is 360 nM.
In the case of `NCC1CCCN1C(=O)c1ccc(Nc2nc3c(C4=CCN(C(=O)CCC(F)(F)F)CC4)cccn3n2)cc1` (centres unmarked) [Example 2-80, 1-[4-[2-[4-[2-(aminomethyl)pyrrolidine-1-carbonyl]anilino]-[1,2,4]triazolo[1,5-a]pyridin-8-yl]-3,6-dihydro-2H-pyridin-1-yl]-4,4,4-trifluoro-butan-1-one] it was 79.4 nM; in that of `O=C(CCC(F)(F)F)N1CC=C(c2cccn3nc(Nc4ccc(C(=O)N5CC6(CCNCC6)C5)cc4)nc23)CC1` [Example 2-81, 1-[4-[2-[4-(2,7-diazaspiro[3.5]nonane-2-carbonyl)anilino]-[1,2,4]triazolo[1,5-a]pyridin-8-yl]-3,6-dihydro-2H-pyridin-1-yl]-4,4,4-trifluoro-butan-1-one], 60 nM; in that of `O=C(CCC(F)(F)F)N1CC=C(c2cccn3nc(Nc4ccc(C(=O)N5CCOC6(CCCNC6)C5)cc4)nc23)CC1` (centres unmarked) [Example 2-82, 4,4,4-trifluoro-1-[4-[2-[4-(1-oxa-4,8-diazaspiro[5.5]undecane-4-carbonyl)anilino]-[1,2,4]triazolo[1,5-a]pyridin-8-yl]-3,6-dihydro-2H-pyridin-1-yl]butan-1-one], 224 nM.
On to `O=C(NCC1CCC2(CCNCC2)O1)c1ccc(Nc2nc3c(C4=CCN(C(=O)CCC(F)(F)F)CC4)cccn3n2)cc1` (centres unmarked) [Example 2-83, N-(1-oxa-8-azaspiro[4.5]decan-2-ylmethyl)-4-[[8-[1-(4,4,4-trifluorobutanoyl)-3,6-dihydro-2H-pyridin-4-yl]-[1,2,4]triazolo[1,5-a]pyridin-2-yl]amino]benzamide], for which the IC50 is 197 nM.
Consider `O=C(NCC1CCNCC1)c1ccc(Nc2nc3c(C4=CCN(C(=O)CCC(F)(F)F)CC4)cccn3n2)cc1` [Example 2-84, N-(4-piperidylmethyl)-4-[[8-[1-(4,4,4-trifluorobutanoyl)-3,6-dihydro-2H-pyridin-4-yl]-[1,2,4]triazolo[1,5-a]pyridin-2-yl]amino]benzamide], for which the half-maximal inhibitory concentration (IC50) is 71.4 nM.
Consider `CNC1CCN(C(=O)c2ccc(Nc3nc4c(C5=CCN(C(=O)CCC(F)(F)F)CC5)cccn4n3)cc2)C1` (centres unmarked) [Example 2-85, 4,4,4-trifluoro-1-[4-[2-[4-[3-(methylamino)pyrrolidine-1-carbonyl]anilino]-[1,2,4]triazolo[1,5-a]pyridin-8-yl]-3,6-dihydro-2H-pyridin-1-yl]butan-1-one], for which the 50% inhibitory concentration (IC50) was 62.6 nM.
Regarding `O=C(NCCC1CCNCC1)c1ccc(Nc2nc3c(C4=CCN(C(=O)CCC(F)(F)F)CC4)cccn3n2)cc1` [Example 2-86, N-[2-(4-piperidyl)ethyl]-4-[[8-[1-(4,4,4-trifluorobutanoyl)-3,6-dihydro-2H-pyridin-4-yl]-[1,2,4]triazolo[1,5-a]pyridin-2-yl]amino]benzamide], the concentration for half-maximal inhibition (IC50) stood at 216 nM.
In the case of `CN1CC2CN(C(=O)c3ccc(Nc4nc5c(C6=CCN(C(=O)CCC(F)(F)F)CC6)cccn5n4)cc3)CC2C1` (centres unmarked) [Example 2-87, 4,4,4-trifluoro-1-[4-[2-[4-(2-methyl-1,3,3a,4,6,6a-hexahydropyrrolo[3,4-c]pyrrole-5-carbonyl)anilino]-[1,2,4]triazolo[1,5-a]pyridin-8-yl]-3,6-dihydro-2H-pyridin-1-yl]butan-1-one] it was 8.6 nM; in that of `Cc1cc(N(C)C)cc(C2CCCN2C(=O)c2ccc(Nc3nc4c(C5=CCN(C(=O)CCC(F)(F)F)CC5)cccn4n3)cc2)n1` (centres unmarked) [Example 2-92, 1-[4-[2-[4-[2-[4-(dimethylamino)-6-methyl-2-pyridyl]pyrrolidine-1-carbonyl]anilino]-[1,2,4]triazolo[1,5-a]pyridin-8-yl]-3,6-dihydro-2H-pyridin-1-yl]-4,4,4-trifluoro-butan-1-one], 20.9 nM.
